The values that follow come from PubChem BioAssay AID248 (DTP/NCI, 2004).

The experiment concerns L1210 leukemia ip in BDF1 mice, survival T/C. In words: NCI In Vivo Anticancer Drug Screen. Data for tumor model L1210 Leukemia (intraperitoneal) in B6D2F1 (BDF1) mice. Conditions: endpoint: mean survival time, higher = longer survival. The gist of the method: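 Mice bearing the transplanted tumor received compound or vehicle. Survival of the treated group was divided by that of the vehicle-treated control group to give the ratio.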

The mark [1] stands for this setting: dose: 100.0 mg/kg/injection, schedule: Q01DX001 (ip), vehicle: Klucel (hydroxypropylcellulose) (HPC).
Setting [2] is: dose: 100.0 mg/kg/injection, schedule: Q04DX003 (ip), vehicle: Klucel (hydroxypropylcellulose) (HPC).
The mark [3] stands for this setting: dose: 200.0 mg/kg/injection, schedule: Q01DX001 (ip), vehicle: Klucel (hydroxypropylcellulose) (HPC).
Setting [4] is: dose: 200.0 mg/kg/injection, schedule: Q04DX003 (ip), vehicle: Klucel (hydroxypropylcellulose) (HPC).
Setting [5] is: dose: 400.0 mg/kg/injection, schedule: Q04DX003 (ip), vehicle: Klucel (hydroxypropylcellulose) (HPC).
[6] abbreviates: dose: 100.0 mg/kg/injection, schedule: Q04DX003 (ip), vehicle: saline with Tween-80.
[7] abbreviates: dose: 200.0 mg/kg/injection, schedule: Q04DX003 (ip), vehicle: saline with Tween-80.
The mark [8] stands for this setting: dose: 100.0 mg/kg/injection, schedule: Q01DX009 (ip), vehicle: Klucel (hydroxypropylcellulose) (HPC).
Setting [9] is: dose: 200.0 mg/kg/injection, schedule: Q01DX009 (ip), vehicle: Klucel (hydroxypropylcellulose) (HPC).
[10] abbreviates: dose: 400.0 mg/kg/injection, schedule: Q01DX009 (ip), vehicle: Klucel (hydroxypropylcellulose) (HPC).
[11] abbreviates: dose: 100.0 mg/kg/injection, schedule: Q04DX002 (ip), vehicle: Klucel (hydroxypropylcellulose) (HPC).
Where [12] appears, read: dose: 200.0 mg/kg/injection, schedule: Q04DX002 (ip), vehicle: Klucel (hydroxypropylcellulose) (HPC).
Where [13] appears, read: dose: 400.0 mg/kg/injection, schedule: Q04DX002 (ip), vehicle: Klucel (hydroxypropylcellulose) (HPC).
Setting [14] is: dose: 50.0 mg/kg/injection, schedule: Q01DX001 (ip), vehicle: saline.
Setting [15] is: dose: 100.0 mg/kg/injection, schedule: Q01DX001 (ip), vehicle: saline.
[16] abbreviates: dose: 200.0 mg/kg/injection, schedule: Q01DX001 (ip), vehicle: saline.
The mark [17] stands for this setting: dose: 400.0 mg/kg/injection, schedule: Q01DX001 (ip), vehicle: saline.
Setting [18] is: dose: 50.0 mg/kg/injection, schedule: Q01DX001 (ip), vehicle: carboxymethylcellulose (CMC).
[19] abbreviates: dose: 100.0 mg/kg/injection, schedule: Q01DX001 (ip), vehicle: carboxymethylcellulose (CMC).
Setting [20] is: dose: 200.0 mg/kg/injection, schedule: Q01DX001 (ip), vehicle: carboxymethylcellulose (CMC).
Where [21] appears, read: dose: 400.0 mg/kg/injection, schedule: Q01DX001 (ip), vehicle: carboxymethylcellulose (CMC).
[22] abbreviates: dose: 25.0 mg/kg/injection, schedule: Q01DX009 (ip), vehicle: saline.
[23] abbreviates: dose: 50.0 mg/kg/injection, schedule: Q01DX009 (ip), vehicle: saline.
Setting [24] is: dose: 100.0 mg/kg/injection, schedule: Q04DX003 (ip), vehicle: saline.

The structures appear in SMILES notation. Where “and” joins values, the source holds several entries; their conditions need not be identical. Equal entries are not always repeated. Inconclusive results and toxic doses are left out.

For the molecule `CC(=O)Nc1ccc(/C=C/C(=O)c2ccc(C)cc2)cc1`, the T/C is, setting by setting: under setting [1], 101 % of control; under setting [2], 104 % of control; under setting [3], 100 % of control; under setting [4], 103 % of control; (dose: 400.0 mg/kg/injection, schedule: Q01DX001 (ip), vehicle: Klucel (hydroxypropylcellulose) (HPC)) 103 % of control; under setting [5], 94 % of control.

Consider `Cc1ccc(C)c(NC(=S)NC(=O)c2ccc(Cl)cc2Cl)c1`, for which the T/C is, setting by setting: (dose: 100.0 mg/kg/injection, schedule: Q01DX001 (ip), vehicle: saline with Tween-80) 104 % of control; (dose: 100.0 mg/kg/injection, schedule: Q04DX002 (ip), vehicle: saline with Tween-80) 95 % of control and 100 % of control; under setting [6], 102 % of control; (dose: 200.0 mg/kg/injection, schedule: Q01DX001 (ip), vehicle: saline with Tween-80) 104 % of control; (dose: 200.0 mg/kg/injection, schedule: Q04DX002 (ip), vehicle: saline with Tween-80) 96 % of control and 110 % of control; under setting [7], 105 % of control. In addition, the T/C by setting is: (dose: 400.0 mg/kg/injection, schedule: Q01DX001 (ip), vehicle: saline with Tween-80) 100 % of control; (dose: 400.0 mg/kg/injection, schedule: Q04DX002 (ip), vehicle: saline with Tween-80) 96 % of control and 102 % of control; (dose: 400.0 mg/kg/injection, schedule: Q04DX003 (ip), vehicle: saline with Tween-80) 100 % of control.

As to `ClC1=C(Cl)C(Cl)(C2(Cl)C(Cl)=C(Cl)C(Cl)=C2Cl)C(Cl)=C1Cl`, the T/C is 93 % of control under setting [8], 102 % of control under setting [9] and 95 % of control under setting [10].

In the case of `CCCCCCCCCCCCCCCC(=O)NCC[N+](CC)(CC)Cc1ccc(C[N+](CC)(CC)CCNC(=O)CCCCCCCCCCCCCCC)cc1`, under “dose: 75.0 mg/kg/injection, schedule: Q01DX001 (ip), vehicle: saline”, the T/C was 98 % of control.

Consider `O=[N+]([O-])c1ccc(/C=C/c2ccc(OCc3ccccc3)cc2)cc1Cl`, for which the T/C under setting [11] was 96 % of control, the T/C under setting [12] is 96 % of control and the T/C under setting [13] was 96 % of control.

On to `O=c1ccc2c([nH]1)CCCCC2`, for which the T/C reads like this: under setting [2], 106 % of control; under setting [4], 100 % of control; under setting [5], 95 % of control.

On to `CCCCCCCCCCCCCCCCCCC[As](=O)(O)CCCCCCCCCCCCCCCCCCC`, for which the T/C was 97 % of control under setting [14], 89 % of control under setting [15], 95 % of control under setting [16] and 91 % of control under setting [17].

Consider `CC(C)(C)CC1=C(O)c2ccccc2C(=O)C1=O`, for which the T/C was 114 % of control under setting [18], 111 % of control under setting [19], 105 % of control under setting [20] and 100 % of control under setting [21].

Regarding `CC(=O)NC(=O)Nc1ccccc1`, the T/C is, setting by setting: under setting [2], 94 % of control; under setting [4], 103 % of control; under setting [5], 95 % of control.

For the molecule `CC1=CC(=O)NP(=O)(OC2CCCCC2)N1` (stereo unspecified), the T/C (dose: 100.0 mg/kg/injection, schedule: Q01DX005 (ip), vehicle: sodium bicarbonate) was 91 % of control.

As to `O=C(Nc1ccc(CCO)cc1)Nc1cccc(F)c1`, the T/C is 103 % of control under setting [8], 102 % of control under setting [9] and 88 % of control under setting [10].

With `C=CC[n+]1ccc2ccccc2c1`, the T/C under setting [22] was 108 % of control; the T/C under setting [23] was 102 % of control; the T/C (dose: 100.0 mg/kg/injection, schedule: Q01DX009 (ip), vehicle: saline) is 105 % of control.

Regarding `COc1ccc(OC)c(NC(=O)Nc2cccc(Cl)c2Cl)c1`, the T/C was 86 % of control under setting [2], 90 % of control under setting [4] and 88 % of control under setting [5].

For `O=C(O)c1ccc[n+]([O-])c1`, the T/C runs as follows: under setting [6], 100 % of control; under setting [7], 100 % of control.

On to `Cc1cc(C)c(S(=O)(=O)O)c(Cc2ccc3ccccc3c2)c1`, for which, under setting [15], the T/C was 94 % of control.

As for `CCOC(=O)N1C(C(=O)c2ccccc2)N(Cc2ccccc2)C(c2ccccc2)N1C(=O)OCC` (stereo unspecified), the T/C runs as follows: under setting [14], 105 % of control; under setting [15], 97 % of control; under setting [16], 105 % of control; under setting [17], 100 % of control.

With `CC1=NN(c2ccccc2)C(=O)C1N=Nc1ccc(S(=O)(=O)Nc2occ(C)c2C)cc1` (stereo unspecified), the T/C under setting [19] was 90 % of control, the T/C under setting [20] is 90 % of control and the T/C under setting [21] was 93 % of control.

For the molecule `CCC(C)C(C1=C(O)c2ccccc2C(=O)C1=O)C1=C(O)c2ccccc2C(=O)C1=O` (stereo unspecified), the T/C is 97 % of control (dose: 75.0 mg/kg/injection, schedule: Q01DX001 (ip), vehicle: carboxymethylcellulose (CMC)) and 104 % of control (dose: 150.0 mg/kg/injection, schedule: Q01DX001 (ip), vehicle: carboxymethylcellulose (CMC)).

With `O=C1N(c2ccccc2)P(Cl)(Cl)(Cl)N1c1ccccc1`, the T/C is, setting by setting: under setting [11], 93 % of control; under setting [12], 110 % of control; under setting [13], 93 % of control.

Turning to `CC(CN1CCCC1)C(O)(Cc1ccccc1)c1ccccc1` (stereo unspecified), the T/C reads like this: under setting [22], 95 % of control; under setting [23], 95 % of control; under setting [24], 92 % of control.

With `COc1ccc(NC(=O)Nc2ccc(S(N)(=O)=O)cc2)c(OC)c1`, the T/C by setting is: under setting [8], 96 % of control; under setting [9], 94 % of control; under setting [10], 88 % of control.

Consider `COc1ccc(-c2nc(SCc3ccc(Cl)cc3)[nH]c(=O)c2CCO)cc1`, for which the T/C is 95 % of control (dose: 50.0 mg/kg/injection, schedule: Q01DX009 (ip), vehicle: Klucel (hydroxypropylcellulose) (HPC)); 101 % of control under setting [8]; 111 % of control under setting [24]; 96 % of control under setting [9]; 95 % of control (dose: 200.0 mg/kg/injection, schedule: Q04DX003 (ip), vehicle: saline).

On to `O=C(/C=C\c1ccc(/C=C/C(=O)Nc2cccc(C3=NCCCN3)c2)cc1)Nc1cccc(C2=NCCCN2)c1`, for which the T/C (dose: 0.62 mg/kg/injection, schedule: Q01DX Z (ip), vehicle: carboxymethylcellulose (CMC)) was 117 % of control; the T/C (dose: 5.0 mg/kg/injection, schedule: Q01DX Z (ip), vehicle: carboxymethylcellulose (CMC)) was 225 % of control; the T/C (dose: 12.5 mg/kg/injection, schedule: Q01DX Z (oral), vehicle: carboxymethylcellulose (CMC)) is 103 % of control; the T/C (dose: 25.0 mg/kg/injection, schedule: Q01DX Z (oral), vehicle: carboxymethylcellulose (CMC)) was 103 % of control; the T/C (dose: 50.0 mg/kg/injection, schedule: Q01DX Z (oral), vehicle: carboxymethylcellulose (CMC)) is 102 % of control; the T/C (dose: 100.0 mg/kg/injection, schedule: Q01DX Z (oral), vehicle: carboxymethylcellulose (CMC)) is 97 % of control.

`Nc1nc2nnc(CNc3ccc(C(=O)NC(CCC(=O)O)C(=O)O)cc3)nc2c(=O)[nH]1` (stereo unspecified): the T/C is 94 % of control under setting [1] and 103 % of control under setting [3].

As to `Nc1nc(N)c(N=Nc2ccccc2)c(=O)[nH]1`, the T/C is 88 % of control under setting [18]; 94 % of control (dose: 50.0 mg/kg/injection, schedule: Q04DX003 (ip), vehicle: carboxymethylcellulose (CMC)); 90 % of control under setting [19]; 93 % of control (dose: 100.0 mg/kg/injection, schedule: Q04DX003 (ip), vehicle: carboxymethylcellulose (CMC)); 93 % of control under setting [20]; 94 % of control (dose: 200.0 mg/kg/injection, schedule: Q04DX003 (ip), vehicle: carboxymethylcellulose (CMC)).
